From patent EP4458825A1, “SALT OF AMINOPYRIMIDINE COMPOUND AND USE THEREOF” (Sunshine Lake Pharma Co., Ltd., priority 2021, dated 2023)
Counter-ions that a name gives are not always drawn.

Tests used:
[1] = Pharmacokinetics test in SD rats (oral gavage, PEG400 suspension); assay type: in vivo; settings: 200 mg/kg
Experimental: The salt of the compound shown in formula (I) and the free base crystal form 2 of the compound shown in formula (I) of the present invention were respectively prepared into a suspension using PEG400, and the male SD rats were given 200 mg/kg test samples orally by gavage, and 3 animals in each group were given. Blood was collected at time points 0.25, 0.5, 1.0, 2.0, 5.0, 7.0 and 24 h after administration. Standard curve was plotted based on concentrations of the samples in a suitable range, the concentration of the test sample in the plasma sample was measured and quantified by AB SCIEX API4000-type LC-MS / MS at MRM mode. Pharmacokinetic parameters were calculated according to drug concentration -time curve using a noncompartmental by WinNonLin 6.3 software. Table 2 Pharmacokinetic experimental results data of salt and free base crystal form 2 of the present invention in male SD rats

[2] = Pharmacokinetics test in Beagle dogs (oral capsules); assay type: in vivo; settings: for AUClast / Cmax / Tmax: male Beagle dogs, oral capsules, 10 mg/kg
Experimental: The salt of the compound shown in formula (I) and the free base crystal form 2 of the compound shown in formula (I) of the present invention were respectively filled with capsules for oral administration.
Male Beagle dogs of 8-12 kg were divided into 2 groups, 3 dogs in each group, and capsules containing test samples were orally administered at a dose of 10 mg/kg, and blood was collected at time points of 0.25, 0.5, 1.0, 2.0, 4.0, 6.0, 8.0 and 24 h. Standard curve was plotted based on concentrations of the samples in a suitable range, the concentration of the test sample in the plasma sample was measured and quantified by AB SCIEX API4000-type LC-MS / MS at MRM mode. Pharmacokinetic parameters were calculated according to drug concentration -time curve using a noncompartmental method by WinNonLin 6.3 software. Table 1 Pharmacokinetic experimental results data of salt and free base crystal form 2 of the present invention in Beagle dogs

[3] = Stability test: high-humidity test; assay type: physicochemical; settings: for Purity: HPLC
Experimental: (§1) High-humidity test: The salt of the compound shown in formula (I) of the present invention was taken an appropriate amount and put into a flat weighing flask, divided into ≤ 3 mm thick thin layer. The samples were placed at 25 °C, RH 90% ± 5% and 25 °C, RH 75% ± 5% for 30 days. The samples were sampled at day 5, day 10 and day 30, and the sample color was observed. The purity of the sample was determined by HPLC.

[4] = Long-term stability test; assay type: physicochemical; settings: for Purity: long-term, 5 °C ± 3 °C, packaged, HPLC
Experimental: Long-term stability test: The samples were inspected under the conditions of single-layer PE inner packaging, aluminum foil bag outer packaging, built-in KD-20 oxygen absorber, and vacuum nitrogen filling and heat sealing packaging, low temperature 5 °C ± 3 °C long-term test conditions, and the sample color was observed. The purity of the sample was determined by HPLC.

[5] = Stability test: high-temperature test; assay type: physicochemical; settings: for Purity: HPLC
Experimental: as §1, with “High-temperature” for “High-humidity”, “60 °C” for “25 °C, RH 90% ± 5%”, “40 °C” for “25 °C, RH 75% ± 5%”

[6] = High humidity RH75%, 25 °C, 5 days
[7] = High humidity RH75%, 25 °C, 10 days
[8] = High humidity RH75%, 25 °C, 30 days
[9] = High humidity RH90%, 25 °C, 5 days
[10] = High humidity RH90%, 25 °C, 10 days
[11] = High humidity RH90%, 25 °C, 30 days
[12] = High temperature (40°C), 5 days
[13] = High temperature (40°C), 10 days
[14] = High temperature (40°C), 30 days
[15] = High temperature (60°C), 5 days
[16] = High temperature (60°C), 10 days
[17] = High temperature (60°C), 30 days
[18] = in Beagle dogs, compared with free base crystal form 2

Molecule `Cc1noc(-c2c(N)ncnc2N[C@@H](C)c2nc3cccc(C#CCO)c3c(=O)n2-c2ccccc2)n1` [crystal form A of bisulfate salt, (S)-2-(1-((6-amino-5-(3-methyl-1,2,4-oxadiazol-5-yl)pyrimidin-4-yl)amino)ethyl)-5-(3-hydroxyprop-1-yn-1-yl)-3-phenylquinazolin-4(3H)-one] has an AUClast ([1]; male SD rats) of 40600 ± 183 ng·h/mL, a Cmax ([1]; male SD rats) of 4080 ± 375 ng/mL and a Tmax ([1]; male SD rats) of 1.50 ± 0.866 h.

`Cc1noc(-c2c(N)ncnc2N[C@@H](C)c2nc3cccc(C#CCO)c3c(=O)n2-c2ccccc2)n1` [crystal form A of phosphate salt, (S)-2-(1-((6-amino-5-(3-methyl-1,2,4-oxadiazol-5-yl)pyrimidin-4-yl)amino)ethyl)-5-(3-hydroxyprop-1-yn-1-yl)-3-phenylquinazolin-4(3H)-one] gave an AUClast ([1]; male SD rats) of 37800 ± 6550 ng·h/mL, a Cmax ([1]; male SD rats) of 3950 ± 1500 ng/mL and a Tmax ([1]; male SD rats) of 1.50 ± 0.866 h.

With `Cc1noc(-c2c(N)ncnc2N[C@@H](C)c2nc3cccc(C#CCO)c3c(=O)n2-c2ccccc2)n1` [Free base crystal form 2, (S)-2-(1-((6-amino-5-(3-methyl-1,2,4-oxadiazol-5-yl)pyrimidin-4-yl)amino)ethyl)-5-(3-hydroxyprop-1-yn-1-yl)-3-phenylquinazolin-4(3H)-one] the AUClast [2] was 26700 ± 6300 ng·h/mL, the Cmax [2] was 2480 ± 600 ng/mL and the Tmax [2] was 2.36 ± 1.2 h. The AUClast ([1]; male SD rats) was 39800 ± 7600 ng·h/mL, the Cmax ([1]; male SD rats) was 5800 ± 850 ng/mL and the Tmax ([1]; male SD rats) was 1.67 ± 0.58 h.

With `Cc1noc(-c2c(N)ncnc2N[C@@H](C)c2nc3cccc(C#CCO)c3c(=O)n2-c2ccccc2)n1` [crystal form A of p-toluenesulfonate salt] [(S)-2-(1-((6-amino-5-(3-methyl-1,2,4-oxadiazol-5-yl)pyrimidin-4-yl)amino)ethyl)-5-(3-hydroxyprop-1-yn-1-yl)-3-phenylquinazolin-4(3H)-one] the Outward ([3]; 0 day) was “Light yellow powder”, the Purity ([3]; 0 day) was 99.78% and the Outward [3, 6] was “Light yellow powder”. The Purity [3, 6] was 99.69%, the Outward [3, 7] was “Light yellow powder” and the Purity [3, 7] was 99.69%. For the same molecule, the Outward [3, 8] was “Light yellow powder”, the Purity [3, 8] was 99.65% and the Outward [3, 9] was “Light yellow powder”. The Purity [3, 9] was 99.75%, the Outward [3, 10] was “Light yellow powder” and the Purity [3, 10] was 99.78%. The Outward [3, 11] was “Light yellow powder”, the Purity [3, 11] was 99.81% and the appearance and purity ([3]; conditions of high humidity) was “not significantly changed”. For the same molecule, the appearance and purity ([4]; condition of long-term stability test) was “no obvious change”, the Purity ([4]; 0 day) was 99.27% and the Purity ([4]; 3 months) was 99.26%. It also gave a Purity ([4]; 6 months) of 99.23%, a Purity ([4]; 9 months) of 99.26% and a Purity ([4]; 12 months) of 99.27%. The Purity ([4]; 18 months) was 99.24%, the Purity ([4]; 24 months) was 99.24% and the Outward ([5]; 0 day) was “Light yellow powder”. The Purity ([5]; 0 day) was 99.78%, the Outward [5, 12] was “Light yellow powder” and the Purity [5, 12] was 99.74%. For the same molecule, the Outward [5, 13] was “Light yellow powder”, the Purity [5, 13] was 99.78% and the Outward [5, 14] was “Light yellow powder”. For the same molecule, the Purity [5, 14] was 99.69%, the Outward [5, 15] was “Light yellow powder” and the Purity [5, 15] was 99.61%. The Outward [5, 16] was “Light yellow powder”, the Purity [5, 16] was 99.44% and the Outward [5, 17] was “Light yellow powder”. For the same molecule, the Purity [5, 17] was 99.1%, the appearance and purity ([5]; conditions of high temperature) was “not significantly changed” and the blood concentration [2, 18] was “higher”. The exposure [2, 18] was “higher”, the AUClast [2] was 84200 ± 20000 ng·h/mL and the Cmax [2] was 8400 ± 1800 ng/mL. For the same molecule, the Cmax ([1]; male SD rats) was 6810 ± 1700 ng/mL.

`Cc1noc(-c2c(N)ncnc2N[C@@H](C)c2nc3cccc(C#CCO)c3c(=O)n2-c2ccccc2)n1` [(S)-2-(1-((6-amino-5-(3-methyl-1,2,4-oxadiazol-5-yl)pyrimidin-4-yl)amino)ethyl)-5-(3-hydroxyprop-1-yn-1-yl)-3-phenylquinazolin-4(3H)-one] showed a Tmax ([2]; male, Beagle, dog, plasma, po, read-out: Tmax) of 3 ± 1.7 h, an AUC(0-t) ([1]; male, SD, rat, plasma, po) of 55200 ± 8700 ng·h/mL and a Tmax ([1]; male, SD, rat, plasma, po, read-out: Tmax) of 1.33 ± 0.58 h.

With `Cc1noc(-c2c(N)ncnc2N[C@@H](C)c2nc3cccc(C#CCO)c3c(=O)n2-c2ccccc2)n1` [crystal form A of Sulfate salt, (S)-2-(1-((6-amino-5-(3-methyl-1,2,4-oxadiazol-5-yl)pyrimidin-4-yl)amino)ethyl)-5-(3-hydroxyprop-1-yn-1-yl)-3-phenylquinazolin-4(3H)-one] the AUClast ([1]; male SD rats) was 35300 ± 8920 ng·h/mL, the Cmax ([1]; male SD rats) was 3310 ± 993 ng/mL and the Tmax ([1]; male SD rats) was 1.17 ± 0.764 h.
